Assay results: patent US20240109903A1, “SUBSTITUTED HETEROCYCLES FOR TREATING CANCER” (Northwestern University, priority 2022, published 2024)

Legend:
Type in all cases: cell-based
CCRF-CEM = experiment: NCI 60 five-dose screen CCRF-CEM; conditions: Homo sapiens; for CC50: read-out: LC50 (the source's name)
NCI-H23 = experiment: NCI 60 five-dose screen NCI-H23; conditions: Homo sapiens; for CC50: read-out: LC50 (the source's name) (converted)
COLO 205 = experiment: NCI 60 five-dose screen COLO 205; conditions: Homo sapiens; for CC50: read-out: LC50 (the source's name) (converted)
HCC-2998 = experiment: NCI 60 five-dose screen HCC-2998; conditions: Homo sapiens; for CC50: read-out: LC50 (the source's name) (converted)
KM12 = experiment: NCI 60 five-dose screen KM12; conditions: Homo sapiens; for CC50: read-out: LC50 (the source's name) (converted)
LOX IMVI = experiment: NCI 60 five-dose screen LOX IMVI; conditions: Homo sapiens; for CC50: read-out: LC50 (the source's name) (converted)
SK-MEL-2 = experiment: NCI 60 five-dose screen SK-MEL-2; conditions: Homo sapiens; for CC50: read-out: LC50 (the source's name) (converted)
UACC-257 = experiment: NCI 60 five-dose screen UACC-257; conditions: Homo sapiens; for CC50: read-out: LC50 (the source's name) (converted)
UACC-62 = experiment: NCI 60 five-dose screen UACC-62; conditions: Homo sapiens; for CC50: read-out: LC50 (the source's name) (converted)
OVCAR-8 = experiment: NCI 60 five-dose screen OVCAR-8; conditions: Homo sapiens; for CC50: read-out: LC50 (the source's name) (converted)
NCI/ADR-RES = experiment: NCI 60 five-dose screen NCI/ADR-RES; conditions: Homo sapiens; for CC50: read-out: LC50 (the source's name) (converted)
SK-OV-3 = experiment: NCI 60 five-dose screen SK-OV-3; conditions: Homo sapiens; for CC50: read-out: LC50 (the source's name) (converted)
A498 = experiment: NCI 60 five-dose screen A498; conditions: Homo sapiens; for CC50: read-out: LC50 (the source's name) (converted)
SN12C = experiment: NCI 60 five-dose screen SN12C; conditions: Homo sapiens; for CC50: read-out: LC50 (the source's name) (converted)
UO-31 = experiment: NCI 60 five-dose screen UO-31; conditions: Homo sapiens; for CC50: read-out: LC50 (the source's name) (converted)
DU-145 = experiment: NCI 60 five-dose screen DU-145; conditions: Homo sapiens; for CC50: read-out: LC50 (the source's name) (converted)
BT-549 = experiment: NCI 60 five-dose screen BT-549; conditions: Homo sapiens; for CC50: read-out: LC50 (the source's name) (converted)
MDA-MB-468 = experiment: NCI 60 five-dose screen MDA-MB-468; conditions: Homo sapiens; for CC50: read-out: LC50 (the source's name) (converted)

SMILES: Fc1ccc(N2CC(Cn3c(C(F)(F)F)cc4c(Cl)ncnc43)C2)c(F)c1 [NUCC-0226695]
- GI50 (CCRF-CEM): 10.5 µM
- IC50 (CCRF-CEM): 41.7 µM
- IC (TGI) (CCRF-CEM): 100 µM
- CC50 (CCRF-CEM): ≥ 100 µM
- GI50 (NCI-H23): 2.63 µM
- IC50 (NCI-H23): 4.9 µM
- IC (TGI) (NCI-H23): 8.32 µM
- CC50 (NCI-H23): 30.9 µM
- GI50 (COLO 205): 15.1 µM
- IC50 (COLO 205): 26.9 µM
- IC (TGI) (COLO 205): 32.4 µM
- CC50 (COLO 205): 70.8 µM
- GI50 (HCC-2998): 1.95 µM
- IC50 (HCC-2998): 3.47 µM
- IC (TGI) (HCC-2998): 3.47 µM
- CC50 (HCC-2998): 6.17 µM
- GI50 (KM12): 16.2 µM
- IC50 (KM12): 28.2 µM
- IC (TGI) (KM12): 30.9 µM
- CC50 (KM12): 60.3 µM
- GI50 (LOX IMVI): 1.62 µM
- IC50 (LOX IMVI): 2.82 µM
- IC (TGI) (LOX IMVI): 3.02 µM
- CC50 (LOX IMVI): 5.5 µM
- GI50 (SK-MEL-2): 15.8 µM
- IC50 (SK-MEL-2): 31.6 µM
- IC (TGI) (SK-MEL-2): 30.9 µM
- CC50 (SK-MEL-2): 61.7 µM
- GI50 (UACC-257): 3.09 µM
- IC50 (UACC-257): 6.46 µM
- IC (TGI) (UACC-257): 12 µM
- CC50 (UACC-257): 42.7 µM
- GI50 (UACC-62): 3.16 µM
- IC50 (UACC-62): 5.62 µM
- IC (TGI) (UACC-62): 12.9 µM
- CC50 (UACC-62): 36.3 µM
- GI50 (OVCAR-8): 2.14 µM
- IC50 (OVCAR-8): 3.47 µM
- IC (TGI) (OVCAR-8): 5.01 µM
- CC50 (OVCAR-8): 19.1 µM
- GI50 (NCI/ADR-RES): 10.2 µM
- IC50 (NCI/ADR-RES): 18.2 µM
- IC (TGI) (NCI/ADR-RES): 26.3 µM
- CC50 (NCI/ADR-RES): 69.2 µM
- GI50 (SK-OV-3): 14.5 µM
- IC50 (SK-OV-3): 28.8 µM
- IC (TGI) (SK-OV-3): 29.5 µM
- CC50 (SK-OV-3): 60.3 µM
- GI50 (A498): 23.4 µM
- IC50 (A498): 100 µM
- IC (TGI) (A498): 74.1 µM
- CC50 (A498): ≥ 100 µM
- GI50 (SN12C): 1.95 µM
- IC50 (SN12C): 3.31 µM
- IC (TGI) (SN12C): 5.01 µM
- CC50 (SN12C): 16.2 µM
- GI50 (UO-31): 2.69 µM
- IC50 (UO-31): 5.75 µM
- IC (TGI) (UO-31): 10.7 µM
- CC50 (UO-31): 33.1 µM
- GI50 (DU-145): 12.6 µM
- IC50 (DU-145): 21.9 µM
- IC (TGI) (DU-145): 25.7 µM
- CC50 (DU-145): 52.5 µM
- GI50 (BT-549): 10.7 µM
- IC50 (BT-549): 23.4 µM
- IC (TGI) (BT-549): 22.9 µM
- CC50 (BT-549): 49 µM
- GI50 (MDA-MB-468): 1.62 µM
- IC50 (MDA-MB-468): 3.39 µM
- IC (TGI) (MDA-MB-468): 3.24 µM
- CC50 (MDA-MB-468): 6.31 µM

SMILES: O=c1ccc(Cn2c(C(F)(F)F)cc3c(Cl)ncnc32)c[nH]1 [NUCC-0226698]
- GI50 (CCRF-CEM): 4.37 µM
- IC50 (CCRF-CEM): 6.61 µM
- IC (TGI) (CCRF-CEM): 100 µM
- CC50 (CCRF-CEM): ≥ 100 µM
- GI50 (NCI-H23): 3.98 µM
- IC50 (NCI-H23): 8.71 µM
- IC (TGI) (NCI-H23): 18.6 µM
- CC50 (NCI-H23): 72.4 µM
- GI50 (COLO 205): 87.1 µM
- IC50 (COLO 205): 100 µM
- IC (TGI) (COLO 205): 100 µM
- CC50 (COLO 205): ≥ 100 µM
- GI50 (HCC-2998): 2.88 µM
- IC50 (HCC-2998): 5.25 µM
- IC (TGI) (HCC-2998): 10 µM
- CC50 (HCC-2998): 34.7 µM
- GI50 (KM12): 17.8 µM
- IC50 (KM12): 30.2 µM
- IC (TGI) (KM12): 39.8 µM
- CC50 (KM12): 91.2 µM
- GI50 (LOX IMVI): 1.66 µM
- IC50 (LOX IMVI): 2.88 µM
- IC (TGI) (LOX IMVI): 3.09 µM
- CC50 (LOX IMVI): 5.89 µM
- GI50 (SK-MEL-2): 17 µM
- IC50 (SK-MEL-2): 33.1 µM
- IC (TGI) (SK-MEL-2): 32.4 µM
- CC50 (SK-MEL-2): 63.1 µM
- GI50 (UACC-257): 3.16 µM
- IC50 (UACC-257): 6.46 µM
- IC (TGI) (UACC-257): 12.9 µM
- CC50 (UACC-257): 75.9 µM
- GI50 (UACC-62): 5.5 µM
- IC50 (UACC-62): 11 µM
- IC (TGI) (UACC-62): 20 µM
- CC50 (UACC-62): 53.7 µM
- GI50 (OVCAR-8): 3.55 µM
- IC50 (OVCAR-8): 4.79 µM
- IC (TGI) (OVCAR-8): 17.4 µM
- CC50 (OVCAR-8): ≥ 100 µM
- GI50 (NCI/ADR-RES): 14.1 µM
- IC50 (NCI/ADR-RES): 27.5 µM
- IC (TGI) (NCI/ADR-RES): 39.8 µM
- CC50 (NCI/ADR-RES): ≥ 100 µM
- GI50 (SK-OV-3): 44.7 µM
- IC50 (SK-OV-3): 100 µM
- IC (TGI) (SK-OV-3): 100 µM
- CC50 (SK-OV-3): ≥ 100 µM
- GI50 (A498): ≥ 100 µM
- IC50 (A498): 100 µM
- IC (TGI) (A498): 100 µM
- CC50 (A498): ≥ 100 µM
- GI50 (SN12C): 6.46 µM
- IC50 (SN12C): 11.7 µM
- IC (TGI) (SN12C): 23.4 µM
- CC50 (SN12C): 69.2 µM
- GI50 (UO-31): 5.01 µM
- IC50 (UO-31): 14.1 µM
- IC (TGI) (UO-31): 19.1 µM
- CC50 (UO-31): 47.9 µM
- GI50 (DU-145): 38.9 µM
- IC50 (DU-145): 61.7 µM
- IC (TGI) (DU-145): 100 µM
- CC50 (DU-145): ≥ 100 µM
- GI50 (BT-549): 14.1 µM
- IC50 (BT-549): 29.5 µM
- IC (TGI) (BT-549): 28.8 µM
- CC50 (BT-549): 58.9 µM
- GI50 (MDA-MB-468): 2.09 µM
- IC50 (MDA-MB-468): 8.13 µM
- IC (TGI) (MDA-MB-468): 5.75 µM
- CC50 (MDA-MB-468): 25.1 µM
